Measurements published in ChEMBL document CHEMBL1201862, “PubChem BioAssay data set” (2004).
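Briefly, cells in 96-well plates were exposed to five compound concentrations for 48 h, and endpoints were estimated by linear interpolation. GI50: concentration for 50% inhibition of growth.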 Active and inactive are the calls of the source. No stated cut-off is given here; in the data, active = GI50 up to about 1.1 µM and inactive = higher.

Assays:
Experiment in all cases: NCI anticancer screen, dose series, 48 h
[1] = tested on: CCRF-CEM
[2] = tested on: OVCAR-8
[3] = tested on: OVCAR-5
[4] = tested on: IGROV-1
[5] = tested on: OVCAR-3
[6] = tested on: NCI-H226
[7] = tested on: BT-549
[8] = tested on: 786-0
[9] = tested on: CAKI-1
[10] = tested on: SW-620
[11] = tested on: HL-60
[12] = tested on: SF-268
[13] = tested on: A498
[14] = tested on: MDA-MB-435
[15] = tested on: UACC-257
[16] = tested on: M14
[17] = tested on: NCI-H460
[18] = tested on: UO-31
[19] = tested on: Malme-3M
[20] = tested on: SNB-19
[21] = tested on: MOLT-4
[22] = tested on: SN12C
[23] = tested on: LOX IMVI
[24] = tested on: HCT-116
[25] = tested on: RXF 393
[26] = tested on: U-251
[27] = tested on: SF-539
[28] = tested on: TK-10
[29] = tested on: EKVX
[30] = tested on: UACC-62
[31] = tested on: DU-145
[32] = tested on: NCI-H522
[33] = tested on: SR
[34] = tested on: RPMI-8226
[35] = tested on: HT-29
[36] = tested on: ACHN
[37] = tested on: COLO 205
[38] = tested on: HOP-92
[39] = tested on: HOP-62
[40] = tested on: A549
[41] = tested on: HCT-15
[42] = tested on: Hs-578T
[43] = tested on: MDA-MB-231
[44] = tested on: HCC 2998
[45] = tested on: OVCAR-4
[46] = tested on: SK-OV-3
[47] = tested on: KM12
[48] = tested on: SK-MEL-5
[49] = tested on: NCI-H23
[50] = tested on: NCI/ADR-RES
[51] = tested on: SNB-75
[52] = tested on: SK-MEL-28
[53] = tested on: K562
[54] = tested on: MDA-N
[55] = tested on: MCF7
[56] = tested on: SF-295
[57] = tested on: T47D
[58] = tested on: SK-MEL-2
[59] = tested on: PC-3

SMILES: O=C(NNC(=O)c1ccccc1O)c1ccccc1O
- GI50 [1]: 0.0173 µM (active)
- GI50 [2]: 0.929 µM (active)
- GI50 [3]: 0.5 µM (active)
- GI50 [4]: < 0.0255 µM (active)
- GI50 [5]: 0.258 µM (active)
- GI50 [6]: 0.873 µM (active)
- GI50 [7]: 0.0426 µM (active)
- GI50 [8]: 0.141 µM (active)
- GI50 [9]: < 0.0237 µM (active)
- GI50 [10]: 0.108 µM (active)
- GI50 [11]: 0.0528 µM (active)
- GI50 [12]: < 0.0233 µM (active)
- GI50 [13]: 19.8 µM (inactive)
- GI50 [14]: < 0.01 µM (active)
- GI50 [15]: 0.376 µM (active)
- GI50 [16]: 0.0785 µM (active)
- GI50 [17]: 0.15 µM (active)
- GI50 [18]: 0.022 µM (active)
- GI50 [19]: 0.0393 µM (active)
- GI50 [20]: 0.0525 µM (active)
- GI50 [21]: 0.0385 µM (active)
- GI50 [22]: 0.0792 µM (active)
- GI50 [23]: 0.0918 µM (active)
- GI50 [24]: 0.0446 µM (active)
- GI50 [25]: 0.0514 µM (active)
- GI50 [26]: 0.116 µM (active)
- GI50 [27]: 0.033 µM (active)
- GI50 [28]: 5.97 µM (inactive)
- GI50 [29]: 1.17 µM (inactive)
- GI50 [30]: 0.0495 µM (active)
- GI50 [31]: 0.0445 µM (active)
- GI50 [32]: 0.112 µM (active)
- GI50 [33]: 0.0366 µM (active)
- GI50 [34]: 0.326 µM (active)
- GI50 [35]: 6.71 µM (inactive)
- GI50 [36]: 0.0507 µM (active)
- GI50 [37]: 0.355 µM (active)
- GI50 [38]: 2.25 µM (inactive)
- GI50 [39]: 2.31 µM (inactive)
- GI50 [40]: 0.0361 µM (active)
- GI50 [41]: 0.11 µM
- GI50 [42]: 0.0149 µM (active)
- GI50 [43]: 5.24 µM (inactive)
- GI50 [44]: 0.0519 µM (active)
- GI50 [45]: 0.0621 µM (active)
- GI50 [46]: 0.341 µM (active)
- GI50 [47]: 0.413 µM (active)
- GI50 [48]: 0.607 µM (active)
- GI50 [49]: 0.105 µM (active)
- GI50 [50]: 0.0791 µM (active)
- GI50 [51]: 0.0565 µM (active)
- GI50 [52]: 22.4 µM (inactive)
- GI50 [53]: < 0.0221 µM (active)
- GI50 [54]: 0.0247 µM (active)
- GI50 [55]: 0.43 µM (active)
- GI50 [56]: 0.189 µM (active)
- GI50 [57]: 0.0625 µM (active)

SMILES: N#Cc1nnn(-c2ccccc2)c1O
- GI50 [2]: > 100 µM (inactive)
- GI50 [3]: > 100 µM (inactive)
- GI50 [4]: > 100 µM (inactive)
- GI50 [5]: > 100 µM (inactive)
- GI50 [6]: > 100 µM (inactive)
- GI50 [7]: > 100 µM (inactive)
- GI50 [8]: > 100 µM (inactive)
- GI50 [9]: > 100 µM (inactive)
- GI50 [10]: > 100 µM (inactive)
- GI50 [11]: > 100 µM (inactive)
- GI50 [58]: > 100 µM (inactive)
- GI50 [12]: > 100 µM (inactive)
- GI50 [59]: > 100 µM (inactive)
- GI50 [13]: > 100 µM (inactive)
- GI50 [14]: > 100 µM (inactive)
- GI50 [15]: > 100 µM (inactive)
- GI50 [16]: > 100 µM (inactive)
- GI50 [18]: > 100 µM (inactive)
- GI50 [19]: > 100 µM (inactive)
- GI50 [20]: > 100 µM (inactive)
- GI50 [21]: > 100 µM (inactive)
- GI50 [22]: > 100 µM (inactive)
- GI50 [23]: > 100 µM (inactive)
- GI50 [24]: > 100 µM (inactive)
- GI50 [25]: > 100 µM (inactive)
- GI50 [26]: > 100 µM (inactive)
- GI50 [27]: > 100 µM (inactive)
- GI50 [28]: > 100 µM (inactive)
- GI50 [29]: > 100 µM (inactive)
- GI50 [30]: > 100 µM (inactive)
- GI50 [31]: > 100 µM (inactive)
- GI50 [32]: > 100 µM (inactive)
- GI50 [34]: > 100 µM (inactive)
- GI50 [35]: > 100 µM (inactive)
- GI50 [36]: > 100 µM (inactive)
- GI50 [37]: > 100 µM (inactive)
- GI50 [39]: > 100 µM (inactive)
- GI50 [40]: > 100 µM (inactive)
- GI50 [41]: > 100 µM
- GI50 [42]: > 100 µM (inactive)
- GI50 [43]: > 100 µM (inactive)
- GI50 [44]: > 100 µM (inactive)
- GI50 [45]: > 100 µM (inactive)
- GI50 [46]: > 100 µM (inactive)
- GI50 [47]: > 100 µM (inactive)
- GI50 [48]: > 100 µM (inactive)
- GI50 [49]: > 100 µM (inactive)
- GI50 [50]: > 100 µM (inactive)
- GI50 [51]: > 100 µM (inactive)
- GI50 [52]: > 100 µM (inactive)
- GI50 [53]: > 100 µM (inactive)
- GI50 [54]: > 100 µM (inactive)
- GI50 [55]: > 100 µM (inactive)
- GI50 [56]: > 100 µM (inactive)
- GI50 [57]: > 100 µM (inactive)
